Data reported in US5087640A, “Novel cyanoguanidine derivatives” (Kanebo, Ltd., priority 1989, dated 1992).

How the values were obtained:
[1] = tested on: taenia caecum smooth muscle; assay: Smooth muscle relaxation (isolated guinea pig taenia caecum, organ bath); format: cell-based, guinia pigs; settings: Cavia porcellus; cumulative addition; papaverine (10^-4 M) relaxation taken as 100%; MOPS-PSS pH 7.4, 37°±1° C.; read-out: ED50 (dose achieving 50% relaxation)
Protocol: Male guinia pigs weighing 300-600 g were stunned by blow on the head. Taeniae were isolated from the caecum and cut into length of about 1 cm to prepare a plurality of test specimens. These specimens were suspended in an organ bath filled with MOPS-PSS containing 129.7 mM of NaC1, 5.9 mM of KC1, 2.54 mM of CaC12, 1.19 mM of MgC12, 10.0 mM of 3-(N-morpholino)propanesulfonic acid (MOPS) and 11.1 mM of glucose, pH 7.4. The bathing solution was continuously bubbled with 100% O2 gas and maintained at 37°±1° C. Resting tension of each specimen was adjusted to 1 g and the spontaneous response was recorded isotonically. The specimens were allowed to stabilize before starting the test. Test compound was cumulatively added to the bathing solution. A relaxation induced with papaverine (10^-4 M) was taken as 100% relaxation. The relaxation effect of each test compound was evaluated in terms of a dose achieving 50% relaxation (ED50) determined by the linear regression analysis.

[2] = Hypotensive activity in anesthetized dogs (mean blood pressure); format: in vivo, Mongrel dogs; settings: 30 μg/kg, i.v.; pentobarbital-anesthetized dogs
Protocol: Mongrel dogs of both sexes, weighing 11-22 kg, were anesthetized with sodium pentobarbital (30 mg/kg, i.v.). Mean blood pressure was measured with a carrier amplifier (Nihon Koden, AP-621G) via a pressure transducer (Nihon Koden, TP-200T) connected to the cannulated left femoral artery. Each test compound was dissolved in 0.9% saline containing 50% (v/v) ethanol and injected into the femoral vein in volumes of 0.1 ml/kg. The hypotensive effects of test compounds were evaluated in terms of the maximum decrease in the mean blood pressure (Δ mmHg) at a dose of 30 μg/kg.

K^+ channel = K^+ channel opening activity (^86 Rb^+ efflux from taenia caecum); format: cell-based, guinia pigs; settings: n = 5; efflux just before addition taken as 100%; 37°±1° C.
Protocol: In order to ascertain that the smooth muscle relaxation activity is proportional to the K^+ channel opening activity, the compound of Example B-2 was tested for the K^+ channel opening activity in comparison with pinacidil.
^86 Rb^+ efflux was selected as the indication of K^+ channel opening effect because the K^+ channels were considered to be selective also for Rb^+. In a similar manner to the test 1, specimens of taenia caecum were suspended in a test tube filled with MOPS-PSS. The bathing solution was continuously bubbled with 100% O2 gas and maintained at 37°±1° C. After an equilibration period for about 45 minutes, the specimens were loaded with ^86 Rb^+. The efflux from the specimens was measured using a scintillation counter at every 2 minutes interval. The efflux data were expressed in terms of the rate coefficient (the ^86 Rb^+ efflux just before the test compounds were added were taken as 100%). The effective dose (ED15) Producing 15% increase of the rate coefficient by the test compounds were calculated from the linear regression analysis.

in vivo = settings: rat, po, fasted male rats, deaths for 7 days, Weil's method
Protocol: Male rats weighing 70-210 g (3-5 rats/group) were fasted overnight and administered orally with the test compound suspended in 5% gum arabic solution. LD50 was calculated from the number of death for 7 days using the Weil's method.

EC50 [1] [nM]	SMILES	maximum decrease in the mean blood pressure, Δ mm Hg ± S.E. [2] [mm Hg]	ED15 (dose producing 15% increase of the ^86 Rb^+ efflux rate coefficient) (K^+ channel) [nM]	LD50 at 168 h (in vivo) [mg/kg]
180	CC(N=C(NC#N)Nc1cc(Cl)cc(Cl)c1)C(C)(C)C (centres unmarked) [Ex. B-6, N-cyano-N'-(3,5-dichlorophenyl)-N"-(1,2,2-trimethylpropyl)guanidine]	–	–	–
58	CC(C)C(C)(C)N=C(NC#N)Nc1cc(Cl)cc(Cl)c1 [Ex. B-4, N-cyano-N'-(3,5-dichlorophenyl)-N"-(1,1,2-trimethylpropyl)guanidine]	–	–	–
> 100000	CC(C)(C)NC(=Nc1c(Cl)cccc1Cl)NC#N [Compd. B, N-t-butyl-N'-cyano-N"-(2,6-dichlorophenyl)guanidine, reference compound]	–	–	–
180	CCC(CC)(CC)N=C(NC#N)Nc1cc(Cl)cc(Cl)c1 [Ex. B-7, N-cyano-N'-(3,5-dichlorophenyl)-N"-(1,1-diethylpropyl)guanidine]	–	–	–
54	CCC(C)(C)N=C(NC#N)Nc1cc(F)cc(Cl)c1 [Ex. B-12, N-(3-chloro-5-fluorophenyl)-N'-cyano-N"-t-pentylguanidine]	–	–	–
2000	CC(N=C(NC#N)Nc1ccncc1)C(C)(C)C.O (centres unmarked) [Pinacidil, N-cyano-N'-(4-pyridyl)-N"-(1,2,2-trimethylpropyl)guanidine monohydrate, reference compound]	-11.3 ± 1.1	24000	–
35	CCCC(C)(C)N=C(NC#N)Nc1cc(Cl)cc(Cl)c1 [Ex. B-3, N-cyano-N'-(3,5-dichlorophenyl)-N"-(1,1-dimethylbutyl)guanidine]	-22.9 ± 3.2	–	–
19	CCC(C)(C)N=C(NC#N)Nc1cc(Br)cc(Br)c1 [Ex. B-10, N-cyano-N'-(3,5-dibromophenyl)-N"-t-pentylguanidine]	–	–	–
1800	CCC(C)(C)NC(=Nc1ccccc1)NC#N [Compd. A, N-cyano-N'-t-pentyl-N"-phenylguanidine, reference compound]	–	–	–
2700	CC(NC(=C[N+](=O)[O-])Nc1ccccc1)C(C)(C)C (centres unmarked) [Compd. C, 2-nitro-1-anilino-1-(1,2,2-trimethylpropyl)aminoethene, reference compound]	–	–	–
66	CC(C)(C)NC(=NC#N)Nc1cc(F)cc(Cl)c1 [Ex. B-11, N-t-butyl-N'-(3-chloro-5-fluorophenyl)-N"-cyanoguanidine]	-19.2 ± 4.4	–	–
21	CC(C)(C)NC(=Nc1cc(Br)cc(Br)c1)NC#N [Ex. B-9, N-t-butyl-N'-cyano-N"-(3,5-dibromophenyl)guanidine]	–	–	–
180	CC(C)(C)NC(=Nc1cc(F)cc(F)c1)NC#N [Ex. B-8, N-t-butyl-N'-cyano-N"-(3,5-difluorophenyl)guanidine]	–	–	–

SMILES	EC50 [1] [nM]	maximum decrease in the mean blood pressure, Δ mm Hg ± S.E. [2] [mm Hg]	ED15 (dose producing 15% increase of the ^86 Rb^+ efflux rate coefficient) (K^+ channel) [nM]	LD50 at 168 h (in vivo) [mg/kg]
CCC(C)(C)N=C(NC#N)Nc1cc(F)cc(Br)c1 [Ex. B-13, N-(3-bromo-5-fluorophenyl)-N'-cyano-N"-t-pentylguanidine]	25	-33.4 ± 0.9	–	> 2000
CCC(C)(CC)N=C(NC#N)Nc1cc(Cl)cc(Cl)c1 [Ex. B-5, N-cyano-N'-(3,5-dichlorophenyl)-N"-(1-ethyl-1-methylpropyl)guanidine]	81	-26.1 ± 1.8	–	> 2000
CCC(C)(C)N=C(NC#N)Nc1cc(Cl)cc(Cl)c1 [Ex. B-2, N-cyano-N'-(3,5-dichlorophenyl)-N"-t-pentylguanidine]	26	-19.1 ± 4.1	270	> 2000
CC(C)(C)NC(=Nc1cc(Cl)cc(Cl)c1)NC#N [Ex. B-1, N-t-butyl-N'-cyano-N"-(3,5-dichlorophenyl)-guanidine]	87	–	–	> 2000
